Test results published in patent publication US6787567B2, “Fungicidal active ingredients combinations” (Bayer Aktiengesellschaft, priority 2000, dated 2004).

System: Plasmopara viticola
Experiment: Plasmopara test (grapevine)/protective
Format: in vivo, Plasmopara viticola on grapevine
Conditions: protective, evaluation 6 days after inoculation
Method: Plasmopara Test (Grapevine)/Protective
Solvent: 49 parts by weight of acetone
Emulsifier: 1 part by weight of alkyl-aryl polyglycol ether
To produce a suitable preparation of active compound, 1 part by weight of active compound or active compound combination is mixed with the stated amounts of solvent and emulsifier, and the concentrate is diluted with water to the desired concentration, or a commercially available formulation of active compound or active compound combination is diluted with water to the desired concentration.
To test for protective activity, young plants are sprayed with the preparation of active compound at the stated application rate. After the spray coating has dried on, the plants are inoculated with an aqueous spore suspension of Plasmopara viticola and then remain in an incubation cabin at approximately 20° C. and 100% relative atmospheric humidity for 1 day. The plants are then placed in a greenhouse at approximately 21° C. and approximately 90% atmospheric humidity for 4 days. The plants are then moistened and then placed in an incubation cabin for 1 day.
Evaluation is carried out 6 days after the inoculation. 0% means an efficacy which corresponds to that of the control, whereas an efficacy of 100% means that no infection is observed.

Compound	% efficacy (application rate 100 g/ha) [%]	% efficacy (application rate 10 g/ha) [%]
[Cl-].[Cu+2].[Cu+2].[OH-].[OH-].[OH-] [Copper oxychloride (XXXXVIa), copper oxychloride]	26	–
CON=C(C(=O)NCCc1ccc(OC)c(OC)c1)c1ccc2c(c1)CCCC2 [Ib]	–	66
